According to patent US9346798B2, “Dihydrobenzoxazine and tetrahydroquinoxaline sodium channel inhibitors” (AMGEN INC., priority 2012, dated 2016):

Target: Nav 1.7 (Homo sapiens (Human), UniProt Q15858)
Assay: Nav 1.7 in vitro PX assay, PatchXpress whole cell voltage clamp
Type: cell-based
Conditions: HEK 293 cells stably transfected with human Nav1.7; partially inactivated state (20 to 50% inactivation)
Experimental: Nav 1.7 In Vitro PX Assay
HEK 293 cells stably transfected with human Nav1.7 were recorded in whole cell voltage clamp mode with the PatchXpress automated electrophysiology system (Molecular Devices, LLC, Sunnyvale, Calif.). Compound effects were measured on a partially inactivated state of the sodium channel. Cells were clamped to a holding potential yielding 20 to 50% inactivation. To elicit sodium current, channels were activated by pulsing to −10 mV for 20 msec. This voltage protocol was repeated at a rate of 0.1 Hz throughout the experiment. A single concentration of test compound was applied to cells for a duration of 3 minutes. Peak sodium current was measured at the end of the compound addition period to determine percent inhibition. Three to five cells were tested per concentration, and IC50 curves were fitted to percent inhibition as a function of concentration.

Nav 1.7, sequence (Q15858 whole entry): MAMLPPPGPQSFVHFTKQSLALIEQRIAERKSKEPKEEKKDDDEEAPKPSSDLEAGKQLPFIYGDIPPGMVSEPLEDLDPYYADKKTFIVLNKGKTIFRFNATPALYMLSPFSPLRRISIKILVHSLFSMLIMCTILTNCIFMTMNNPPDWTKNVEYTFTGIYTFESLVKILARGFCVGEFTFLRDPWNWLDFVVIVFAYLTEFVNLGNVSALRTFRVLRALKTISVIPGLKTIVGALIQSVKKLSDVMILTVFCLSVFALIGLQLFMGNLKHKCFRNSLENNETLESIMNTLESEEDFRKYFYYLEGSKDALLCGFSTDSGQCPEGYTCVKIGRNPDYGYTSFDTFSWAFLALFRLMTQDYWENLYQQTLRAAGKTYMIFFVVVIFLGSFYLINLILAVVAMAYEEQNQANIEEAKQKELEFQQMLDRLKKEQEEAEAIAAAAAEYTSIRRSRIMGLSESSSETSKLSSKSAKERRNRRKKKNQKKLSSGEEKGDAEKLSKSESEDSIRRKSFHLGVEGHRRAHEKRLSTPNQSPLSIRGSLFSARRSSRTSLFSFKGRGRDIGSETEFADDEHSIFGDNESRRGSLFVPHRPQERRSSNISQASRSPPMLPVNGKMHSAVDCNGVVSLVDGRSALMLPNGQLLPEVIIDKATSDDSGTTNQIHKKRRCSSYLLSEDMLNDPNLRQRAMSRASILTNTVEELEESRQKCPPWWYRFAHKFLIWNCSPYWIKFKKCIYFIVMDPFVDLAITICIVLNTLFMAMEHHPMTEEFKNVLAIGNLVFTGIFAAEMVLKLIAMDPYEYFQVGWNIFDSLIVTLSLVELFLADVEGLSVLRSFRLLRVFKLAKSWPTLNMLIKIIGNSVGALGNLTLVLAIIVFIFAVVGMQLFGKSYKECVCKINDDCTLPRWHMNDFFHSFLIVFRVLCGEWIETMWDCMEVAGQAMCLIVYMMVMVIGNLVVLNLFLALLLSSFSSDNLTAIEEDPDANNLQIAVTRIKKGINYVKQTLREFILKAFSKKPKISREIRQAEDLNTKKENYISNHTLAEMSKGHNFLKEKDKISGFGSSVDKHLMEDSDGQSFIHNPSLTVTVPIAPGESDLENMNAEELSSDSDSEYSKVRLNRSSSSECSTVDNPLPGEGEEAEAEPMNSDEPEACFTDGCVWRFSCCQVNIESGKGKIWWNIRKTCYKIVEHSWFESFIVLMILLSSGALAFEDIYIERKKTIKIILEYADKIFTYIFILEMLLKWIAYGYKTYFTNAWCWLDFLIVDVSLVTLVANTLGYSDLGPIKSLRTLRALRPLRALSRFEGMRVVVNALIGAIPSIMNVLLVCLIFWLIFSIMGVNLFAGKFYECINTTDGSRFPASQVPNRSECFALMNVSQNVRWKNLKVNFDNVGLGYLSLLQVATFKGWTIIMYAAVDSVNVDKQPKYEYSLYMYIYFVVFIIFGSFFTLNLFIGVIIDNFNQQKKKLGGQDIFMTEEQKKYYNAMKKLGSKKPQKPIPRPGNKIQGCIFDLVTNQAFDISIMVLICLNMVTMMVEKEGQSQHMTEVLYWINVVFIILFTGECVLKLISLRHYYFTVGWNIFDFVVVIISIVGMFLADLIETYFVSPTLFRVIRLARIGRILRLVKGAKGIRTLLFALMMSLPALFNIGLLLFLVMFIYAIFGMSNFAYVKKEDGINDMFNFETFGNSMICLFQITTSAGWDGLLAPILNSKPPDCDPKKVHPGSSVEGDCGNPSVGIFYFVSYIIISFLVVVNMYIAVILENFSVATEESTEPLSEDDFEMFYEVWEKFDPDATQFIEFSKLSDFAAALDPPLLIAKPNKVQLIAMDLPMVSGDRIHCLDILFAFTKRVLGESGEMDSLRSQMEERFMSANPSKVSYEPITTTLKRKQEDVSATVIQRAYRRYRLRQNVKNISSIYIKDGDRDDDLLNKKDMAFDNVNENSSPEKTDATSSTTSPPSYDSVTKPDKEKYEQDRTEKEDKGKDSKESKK

Row | IC50 [µM] | SMILES
1 | 0.403 | Cc1cc(C(F)(F)F)ccc1N1C(=O)COc2cc(S(=O)(=O)Nc3nccs3)ccc21 [Example 247, 4-(2-Methyl-4-(Trifluoromethyl)Phenyl)-3-Oxo-N-(Thiazol-2-Yl)-3,4-Dihydro-2H-Benzo[B][1,4]Oxazine-7-Sulfonamide]
2 | 0.513 | COc1ccc(C(F)(F)F)cc1N1C(=O)COc2cc(S(=O)(=O)Nc3nccs3)ccc21 [Example 236, 4-(2-Methoxy-5-(Trifluoromethyl)Phenyl)-3-Oxo-N-(Thiazol-2-Yl)-3,4-Dihydro-2H-Benzo[B][1,4]Oxazine-7-Sulfonamide]
3 | 3.6 | CC(C)(C#N)Oc1ccccc1N1CCOc2cc(S(=O)(=O)Nc3nccs3)ccc21 [Example 261, 4-(2-((2-cyanopropan-2-yl)oxy)phenyl)-N-(thiazol-2-yl)-3,4-dihydro-2H-benzo[b][1,4]oxazine-7-sulfonamide]
4 | 2.22 | NC(=O)COc1ccccc1N1CCOc2cc(S(=O)(=O)Nc3nccs3)ccc21 [Example 256, 2-(2-(7-(N-(thiazol-2-yl)sulfamoyl)-2H-benzo[b][1,4]oxazin-4(3H)-yl)phenoxy)acetamide]
5 | 0.615 | COc1cc(F)ccc1N1C(=O)COc2cc(S(=O)(=O)Nc3nccs3)ccc21 [Example 245, 4-(4-Fluoro-2-Methoxyphenyl)-3-Oxo-N-(Thiazol-2-Yl)-3,4-Dihydro-2H-Benzo[B][1,4]Oxazine-7-Sulfonamide]
6 | 1.31 | CC(C)(O)c1ccccc1N1CCOc2cc(S(=O)(=O)Nc3nccs3)ccc21 [Example 258, 4-(2-(2-hydroxypropan-2-yl)phenyl)-N-(thiazol-2-yl)-3,4-dihydro-2H-benzo[b][1,4]oxazine-7-sulfonamide]
7 | 3.67 | O=S(=O)(Nc1nccs1)c1ccc2c(c1)OCCN2c1ccccc1C(O)CO (stereo not shown) [Example 252, 4-(2-(1,2-dihydroxyethyl)phenyl)-N-(thiazol-2-yl)-3,4-dihydro-2H-benzo[b][1,4]oxazine-7-sulfonamide]
8 | 0.35 | O=C1COc2cc(S(=O)(=O)Nc3nccs3)ccc2N1c1ccc(C(F)(F)F)cc1Br [Example 239, 4-(2-Bromo-4-(Trifluoromethyl)Phenyl)-3-Oxo-N-(Thiazol-2-Yl)-3,4-Dihydro-2H-Benzo[B][1,4]Oxazine-7-Sulfonamide]

Row | SMILES | IC50 [µM]
9 | N#Cc1cc(Cl)ccc1N1CCOc2cc(S(=O)(=O)Nc3ccncn3)ccc21 [Example 243, 4-(4-Chloro-2-Cyanophenyl)-N-(Pyrimidin-4-Yl)-3,4-Dihydro-2H-Benzo[B][1,4]Oxazine-7-Sulfonamide] | 1.88
10 | COc1cc(C(F)(F)F)ccc1N1C(=O)COc2cc(S(=O)(=O)Nc3ncns3)ccc21 [Example 248, 4-(2-Methoxy-4-(Trifluoromethyl)Phenyl)-3-Oxo-N-(1,2,4-Thiadiazol-5-Yl)-3,4-Dihydro-2H-Benzo[B][1,4]Oxazine-7-Sulfonamide] | 0.175
11 | COc1cc(C#N)ccc1N1C(=O)COc2cc(S(=O)(=O)Nc3nccs3)ccc21 [Example 232, 4-(4-Cyano-2-Methoxyphenyl)-3-Oxo-N-(Thiazol-2-Yl)-3,4-Dihydro-2H-Benzo[B][1,4]Oxazine-7-Sulfonamide] | 2.01

Target: Nav 1.5 (Homo sapiens (Human), UniProt Q14524)
Assay: Nav 1.5 in vitro assay, IonWorks Quattro (IWQ) population patch-clamp
Type: cell-based
Conditions: HEK 293 cells stably transfected with Nav 1.5; 26th pulse to -20 mV
Experimental: Nav 1.7 and Nav 1.5 In Vitro Assays
HEK 293 cells stably transfected with either Nav 1.7 or with Nav 1.5 were recorded in population patch-clamp mode with the IonWorks® Quattro automated electrophysiology system in accordance with the manufacturer's specifications (Molecular Devices, LLC, Sunnyvale, Calif.). Sodium channel currents were measured in response to a train of depolarizations that induced successively greater inactivation.
Cells were held at −110 mV for three seconds (Nav 1.7) or half a second (Nav 1.5) from a holding voltage of −15 mV, then put through a series of 26 pulses of 150 msec duration to −20 mV at a frequency of 5 Hz. Cells were then left unclamped for a period of 3 to 8 minutes while a single concentration of test compound was added. Cells were then reclamped and put through the same voltage protocol. Current at the end of the 26th pulse to −20 mV was subtracted from the peak current evoked by the 26th pulse to −20 mV to correct for leak current. Percent block was calculated for each concentration in duplicate, and IC50 curves were fitted to percent block as a function of concentration.

Nav 1.5, sequence (Q14524 whole entry): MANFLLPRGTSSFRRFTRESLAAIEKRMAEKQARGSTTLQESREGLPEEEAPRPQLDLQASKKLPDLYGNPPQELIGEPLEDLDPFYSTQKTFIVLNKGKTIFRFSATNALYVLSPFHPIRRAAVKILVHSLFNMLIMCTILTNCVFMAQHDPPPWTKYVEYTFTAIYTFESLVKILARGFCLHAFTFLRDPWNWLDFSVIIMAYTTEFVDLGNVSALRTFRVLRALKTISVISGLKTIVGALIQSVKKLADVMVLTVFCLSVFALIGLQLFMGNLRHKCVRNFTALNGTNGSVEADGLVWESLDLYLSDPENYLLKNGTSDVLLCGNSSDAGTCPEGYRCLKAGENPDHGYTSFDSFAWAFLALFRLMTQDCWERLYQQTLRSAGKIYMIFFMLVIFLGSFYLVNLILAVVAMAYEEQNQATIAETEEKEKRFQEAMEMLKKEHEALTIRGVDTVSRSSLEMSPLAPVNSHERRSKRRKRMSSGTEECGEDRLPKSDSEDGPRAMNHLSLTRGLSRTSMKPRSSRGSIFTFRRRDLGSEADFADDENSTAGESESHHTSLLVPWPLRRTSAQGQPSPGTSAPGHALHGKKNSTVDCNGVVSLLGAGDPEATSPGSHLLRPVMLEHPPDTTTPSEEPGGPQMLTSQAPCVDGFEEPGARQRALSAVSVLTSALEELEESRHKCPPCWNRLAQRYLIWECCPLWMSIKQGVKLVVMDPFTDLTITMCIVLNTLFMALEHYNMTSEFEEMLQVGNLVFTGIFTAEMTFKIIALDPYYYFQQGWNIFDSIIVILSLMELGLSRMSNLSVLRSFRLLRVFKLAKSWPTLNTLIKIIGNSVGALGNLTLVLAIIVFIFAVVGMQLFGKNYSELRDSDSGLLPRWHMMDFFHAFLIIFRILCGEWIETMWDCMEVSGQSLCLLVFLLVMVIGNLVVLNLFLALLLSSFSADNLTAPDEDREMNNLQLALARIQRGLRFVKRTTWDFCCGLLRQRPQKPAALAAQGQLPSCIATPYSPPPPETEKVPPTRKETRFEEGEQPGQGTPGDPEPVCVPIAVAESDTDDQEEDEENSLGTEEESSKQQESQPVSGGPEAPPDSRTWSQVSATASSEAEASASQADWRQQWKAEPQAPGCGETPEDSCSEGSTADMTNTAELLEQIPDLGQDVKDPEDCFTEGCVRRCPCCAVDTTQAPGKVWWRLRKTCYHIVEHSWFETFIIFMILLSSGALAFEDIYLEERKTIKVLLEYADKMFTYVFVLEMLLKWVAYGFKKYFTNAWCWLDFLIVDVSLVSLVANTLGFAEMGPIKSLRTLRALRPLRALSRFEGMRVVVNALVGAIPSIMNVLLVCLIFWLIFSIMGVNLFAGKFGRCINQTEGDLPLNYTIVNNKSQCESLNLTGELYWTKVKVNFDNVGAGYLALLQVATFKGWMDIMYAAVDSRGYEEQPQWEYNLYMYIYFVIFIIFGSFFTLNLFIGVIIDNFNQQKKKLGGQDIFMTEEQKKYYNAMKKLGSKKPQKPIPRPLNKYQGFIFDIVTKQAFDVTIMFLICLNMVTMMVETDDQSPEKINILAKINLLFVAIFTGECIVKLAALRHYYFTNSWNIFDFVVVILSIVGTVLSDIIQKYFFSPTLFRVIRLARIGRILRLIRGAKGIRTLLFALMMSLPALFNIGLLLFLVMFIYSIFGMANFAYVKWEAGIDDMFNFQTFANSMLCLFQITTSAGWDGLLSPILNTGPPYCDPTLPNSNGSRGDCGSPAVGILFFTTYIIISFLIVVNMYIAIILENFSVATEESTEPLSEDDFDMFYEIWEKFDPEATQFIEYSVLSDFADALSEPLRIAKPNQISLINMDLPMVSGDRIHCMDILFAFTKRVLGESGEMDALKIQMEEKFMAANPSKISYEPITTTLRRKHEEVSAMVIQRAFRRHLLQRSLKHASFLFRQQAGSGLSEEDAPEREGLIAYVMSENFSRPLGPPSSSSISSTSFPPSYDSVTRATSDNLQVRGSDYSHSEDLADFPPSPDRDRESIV

Row | SMILES | IC50 [µM]
12 | O=S(=O)(Nc1nccs1)c1ccc2c(c1)OCCN2c1cc(F)ccc1F [Example 83, 4-(2,5-Difluorophenyl)-N-(Thiazol-2-Yl)-3,4-Dihydro-2H-Benzo[B][1,4]Oxazine-7-Sulfonamide 2,2,2-Trifluoroacetate] | > 10
13 | COc1ccc(N2CCOc3cc(S(=O)(=O)Nc4nccs4)ccc32)c(C#N)c1 [Example 153, 4-(2-Cyano-4-Methoxyphenyl)-N-(Thiazol-2-Yl)-3,4-Dihydro-2H-Benzo[B][1,4]Oxazine-7-Sulfonamide 2,2,2-Trifluoroacetate] | > 10
14 | Cc1ccc(N2CCOc3cc(S(=O)(=O)Nc4nccs4)ccc32)cc1F [Example 82, 4-(3-Fluoro-4-Methylphenyl)-N-(Thiazol-2-Yl)-3,4-Dihydro-2H-Benzo[B][1,4]Oxazine-7-Sulfonamide 2,2,2-Trifluoroacetate] | > 10
15 | O=S(=O)(Nc1nccs1)c1ccc2c(c1)OCCN2c1ccc(C(F)(F)F)cc1C1=CCNCC1 [Example 38, 4-(2-(1,2,3,6-Tetrahydropyridin-4-Yl)-4-(Trifluoromethyl)Phenyl)-N-(Thiazol-2-Yl)-3,4-Dihydro-2H-Benzo[B][1,4]Oxazine-7-Sulfonamide 2,2,2-Trifluoroacetate] | 0.254
16 | Cc1c(Cl)cccc1N1CCOc2cc(S(=O)(=O)Nc3nccs3)ccc21 [Example 169, 4-(3-Chloro-2-Methylphenyl)-N-(Thiazol-2-Yl)-3,4-Dihydro-2H-Benzo[B][1,4]Oxazine-7-Sulfonamide 2,2,2-Trifluoroacetate] | > 10
17 | O=S(=O)(Nc1nccs1)c1ccc2c(c1)OCCN2c1cccc(Cl)c1Cl [Example 171, 4-(2,3-Dichlorophenyl)-N-(Thiazol-2-Yl)-3,4-Dihydro-2H-Benzo[B][1,4]Oxazine-7-Sulfonamide 2,2,2-Trifluoroacetate] | 6.44
18 | O=S(=O)(Nc1nccs1)c1ccc2c(c1)OCCN2c1cccc2scnc12 [Example 72, 4-(Benzo[D]Thiazol-4-Yl)-N-(Thiazol-2-Yl)-3,4-Dihydro-2H-Benzo[B][1,4]Oxazine-7-Sulfonamide 2,2,2-Trifluoroacetate] | > 10
19 | O=S(=O)(Nc1nccs1)c1ccc2c(c1)OCCN2c1ccccc1C(F)(F)F [Example 157, N-(Thiazol-2-Yl)-4-(2-(Trifluoromethyl)Phenyl)-3,4-Dihydro-2H-Benzo[B][1,4]Oxazine-7-Sulfonamide 2,2,2-Trifluoroacetate] | > 10
20 | Cc1ccc(N2CCOc3cc(S(=O)(=O)Nc4nccs4)ccc32)cc1Cl [Example 163, 4-(3-Chloro-4-Methylphenyl)-N-(Thiazol-2-Yl)-3,4-Dihydro-2H-Benzo[B][1,4]Oxazine-7-Sulfonamide 2,2,2-Trifluoroacetate] | 3.14
21 | CN1CC=C(c2cc(C(F)(F)F)ccc2N2CCOc3cc(S(=O)(=O)Nc4ccncn4)ccc32)CC1 [Example 51, 4-(2-(1-Methyl-1,2,3,6-Tetrahydropyridin-4-Yl)-4-(Trifluoromethyl)Phenyl)-N-(Pyrimidin-4-Yl)-3,4-Dihydro-2H-Benzo[B][1,4]Oxazine-7-Sulfonamide] | > 10
22 | Cc1cc(N2CCOc3cc(S(=O)(=O)Nc4nccs4)ccc32)cc(C)c1N(C)C [Example 161, 4-(4-(Dimethylamino)-3,5-Dimethylphenyl)-N-(Thiazol-2-Yl)-3,4-Dihydro-2H-Benzo[B][1,4]Oxazine-7-Sulfonamide 2,2,2-Trifluoroacetate] | 3.49
23 | CC(C)(C)OC(=O)N1CC=C(c2cc(C(F)(F)F)ccc2N2CCOc3cc(S(=O)(=O)Nc4ncns4)ccc32)CC1 [Example 6, Tert-Butyl 4-(2-(7-(N-(1,2,4-Thiadiazol-5-Yl)Sulfamoyl)-2H-Benzo[B][1,4]Oxazin-4(3H)-Yl)-5-(Trifluoromethyl)Phenyl)-5,6-Dihydropyridine-1(2H)-Carboxylate] | 2.29
24 | O=S(=O)(Nc1nccs1)c1ccc2c(c1)OCCN2c1ncc(Cl)cc1Cl [Example 121, 4-(3,5-Dichloropyridin-2-yl)-N-(thiazol-2-yl)-3,4-dihydro-2H-benzo[b][1,4]oxazine-7-sulfonamide] | > 10
25 | COc1cccc(N2CCOc3cc(S(=O)(=O)Nc4nccs4)ccc32)c1 [Example 77, 4-(3-Methoxyphenyl)-N-(Thiazol-2-Yl)-3,4-Dihydro-2H-Benzo[B][1,4]Oxazine-7-Sulfonamide 2,2,2-Trifluoroacetate] | > 10
